Data as given in PubChem BioAssay AID1845213 (Molecular Pharmacology Branch, DTP, NCI, 2023).

Tested on: NCI-H841 complex tumor spheroid viability
Test: Anticancer human tumor NCI-H841 cell line growth inhibition;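 further: spheroids exposed to compounds for 7 days before readout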;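 on viability, T/C: 100% = DMSO vehicle control wells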
Conditions: for IC50: curve of first compound; for viability, T/C: stronger effect = lower value; active means viability on the fitted dose curve at most 10% of control; inactive means the rest
Excerpt: Multicellular complex tumor spheroid response to DNA repair inhibitors in combination with DNA-damaging drugs
This study explores the anticancer activities of DNA-damaging drugs and inhibitors of DNA damage repair, both as single agents and in combinations. Complex tumor spheroids comprised of malignant cells, endothelial cells and mesenchymal stem cells served as an in vitro model for human solid tumors. This model system incorporates physiologically relevant features and patient-derived or established malignant cell lines with clinically relevant genetic alterations from many tumor types. Twenty-six patient-derived or established malignant cell lines were evaluated representing sarcoma, melanoma, small cell lung cancer (SCLC), non-small cell lung cancer (NSCLC), as well as bladder, ovarian and pancreatic cancers. The concentration ranges selected for each drug and investigational agent were based upon clinically achievable concentrations if the clinical Cmax of the agent was known.
Compounds. The drugs and compounds olaparib (NSC753686), talazoparib (NSC767125), berzosertib (NSC777718), elimusertib (NSC800525), nedisertib (NSC802822), VX-984 (NSC792969), AZD-1390 (NSC803789), temozolomide (NSC362856), topotecan (NSC609699), trabectedin (NSC813783), staurosporine (NSC755774), and gemcitabine (NSC613327) were obtained from the National Cancer Institute (NCI) Developmental Therapeutics Program Chemical Repository. The FDA-approved anticancer drug set is available from the Developmental Therapeutics Program at https://dtp.cancer.gov/organization/dscb/obtaining/available_plates.htm. […] The stock solutions were prepared in dimethyl sulfoxide (DMSO, Sigma-Aldrich, St. Louis, MO, cat. D2650) at 400-fold the tested concentration and stored at -70 degrees C. Prior to their use, the stock solutions were diluted in fresh medium and the final DMSO concentration in the assay was 0.25% (v/v). All drugs and investigational agents were tested over a range starting from a high concentration at or near the clinical Cmax and decreasing in half-log increments. If the clinical Cmax for an agent had not been determined, the highest concentration tested was 10 microM.
Cell Lines. The patient-derived cancer cell (PDC) lines: 156681-154-R-J1-PDC, 283228-195-R-J1-PDC, 287954-098-R-J1-PDC, 292921-168-R-J2-PDC, 349418-098-R-PDC, 425362-245-T-J1-PDC, 556581-035-R-J1-PDC, and BL0293-F563-PDC were received from the NCI Patient-Derived Models Repository (PDMR, https://pdmr.cancer.gov). The established cell lines HS-SY-2 (RRID:CVCL_8719), MPNST, and SYO-1 (RRID:CVCL_7146) were obtained from the Sloan Kettering Institute. The alveolar soft parts sarcoma cell line ASPS-1 (RRID:CVCL_S738) was established at the NCI and grown from internal seed stocks. The following established cell lines were purchased from the American Type Culture Collection (ATCC, Manassas, VA): G-401 (ATCC, cat. CRL-1441, RRID:CVCL_0270), SW982 (ATCC, cat. HTB-93, RRID:CVCL_1734), VA-ES-BJ (ATCC, cat. CRL-2138, RRID:CVCL_1785), NCI-H719 (ATCC, cat. CRL-5837, RRID:CVCL_1582), NCI-H196 (ATCC, cat. CRL-5823, RRID:CVCL_1509), NCI-H841 (ATCC, cat. CRL-5845, RRID:CVCL_1595), NCI-H1618 (ATCC, cat. CRL-5879, RRID:CVCL_1480), NCI-H1876 (ATCC, cat. CRL-5902, RRID:CVCL_1503), DMS 114 (ATCC, cat. CRL-2066; RRID:CVCL_1174), NCI-H211 (ATCC, cat. CRL-5824; RRID:CVCL_1529), and SW 1271 (ATCC, cat. CRL-2177, RRID:CVCL_1716). The small cell lung cancer cell line COR-L88 was purchased from Sigma-Aldrich (cat. 92031917-1VL, RRID:CVCL_1141). The non-small cell lung cancer cell lines NCI-H226 (RRID:CVCL_1544) and NCI-H322M (RRID:CVCL_1557) were established at the NCI and grown from internal seed stocks. Pooled donor human umbilical vein endothelial cells (HUVEC, Lonza, cat. CC-2519) and human mesenchymal stem cells (hMSC, Lonza, cat. PT-2501) were purchased from Lonza (Walkersville, MD).
Cell Culture. All cells were maintained in an incubator at 37 degrees C and 5% CO2 with 95% humidity. […]

Cc1sc2c(c1C)C(c1ccc(Cl)cc1)=NC(CC(=O)Nc1ccc(O)cc1)c1nnc(C)n1-2 (stereo not given) + CC[C@@]1(O)C(=O)OCc2c1cc1n(c2=O)Cc2cc3c(CN(C)C)c(O)ccc3nc2-1
active: viability, T/C (second compound 0.003 µM, first compound 0.949 µM) 6.68% | viability, T/C (second compound 0.003 µM, first compound 3 µM) 1.61% | viability, T/C (second compound 0.00949 µM, first compound 0.0949 µM) 27.9% | viability, T/C (second compound 0.00949 µM, first compound 0.3 µM) 4.81% | viability, T/C (second compound 0.00949 µM, first compound 0.949 µM) 1.04% | viability, T/C (second compound 0.00949 µM, first compound 3 µM) 0.47% | viability, T/C (second compound 0.03 µM, first compound 0.00949 µM) 1.92% | viability, T/C (second compound 0.03 µM, first compound 0.03 µM) 4.07% | viability, T/C (second compound 0.03 µM, first compound 0.0949 µM) 0.85% | viability, T/C (second compound 0.03 µM, first compound 0.3 µM) 0.58% | viability, T/C (second compound 0.03 µM, first compound 0.949 µM) 0.55% | viability, T/C (second compound 0.03 µM, first compound 3 µM) 0.5% | viability, T/C (second compound 0.0949 µM, first compound 0.00949 µM) 1.59% | viability, T/C (second compound 0.0949 µM, first compound 0.03 µM) 1.44% | viability, T/C (second compound 0.0949 µM, first compound 0.0949 µM) 0.98% | viability, T/C (second compound 0.0949 µM, first compound 0.3 µM) 0.78% | viability, T/C (second compound 0.0949 µM, first compound 0.949 µM) 0.62% | viability, T/C (second compound 0.0949 µM, first compound 3 µM) 5.05% | viability, T/C (second compound 0.3 µM, first compound 0.00949 µM) 1.48% | viability, T/C (second compound 0.3 µM, first compound 0.03 µM) 1.46% | viability, T/C (second compound 0.3 µM, first compound 0.0949 µM) 1.06% | viability, T/C (second compound 0.3 µM, first compound 0.3 µM) 0.57% | viability, T/C (second compound 0.3 µM, first compound 0.949 µM) 0.28% | viability, T/C (second compound 0.3 µM, first compound 3 µM) 0.2%
12.7 nM: IC50 (second compound 0.00949 µM)
inactive: viability, T/C (second compound 0.003 µM, first compound 0.00949 µM) 88% | viability, T/C (second compound 0.003 µM, first compound 0.03 µM) 85% | viability, T/C (second compound 0.003 µM, first compound 0.0949 µM) 66.2% | viability, T/C (second compound 0.003 µM, first compound 0.3 µM) 26.5% | viability, T/C (second compound 0.00949 µM, first compound 0.00949 µM) 63.4% | viability, T/C (second compound 0.00949 µM, first compound 0.03 µM) 9.92%
< 9.49 nM: IC50 (second compound 0.03 µM) | IC50 (second compound 0.0949 µM) | IC50 (second compound 0.3 µM)
152 nM: IC50 (second compound 0.003 µM)
